Laboratory results: paper PMC7822874, “Chemoprotective antimalarials identified through quantitative high-throughput screening of Plasmodium blood and liver stage parasites” (Scientific Reports, 2021)
Where two headings read alike, the source gives them in different places.

Key:
Type in all cases: cell-based, Plasmodium falciparum
[1] = system: P. falciparum Dd2 Cytb A122D; experiment: SYBR Green ABS proliferation assay, NCGC00473217 selected clone F12; conditions: for AC50: Plasmodium falciparum
Outline: (§1)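 Drug-selected Dd2 clones bearing the cytochrome b mutation were cultured at 37 °C under 5% CO2, 5% O2, 90% N2. Growth was read at 72 h by SYBR Green-I fluorescence, normalized to controls as percent response.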

[2] = system: P. falciparum Dd2 (clone B2) asexual blood stage parasites; experiment: P. falciparum Dd2 asexual blood stage SYBR Green-I 72 h proliferation assay (qHTS); conditions: Plasmodium falciparum
[3] = system: P. falciparum Dd2 Cytb G131S; experiment: SYBR Green ABS proliferation assay, NCGC00374598 selected clone C11; conditions: for AC50: Plasmodium falciparum
Outline: as §1

[4] = system: P. falciparum Dd2 Cytb V259L; experiment: SYBR Green ABS proliferation assay, NCGC00473217 selected clone F06; conditions: for AC50: Plasmodium falciparum
Outline: as §1

[5] = system: P. falciparum Dd2 Cytb F123L; experiment: SYBR Green ABS proliferation assay, NCGC00473217 selected clone G08; conditions: for AC50: Plasmodium falciparum
Outline: as §1

[6] = DD2, […], averaged from three independent replicates, top concentration 29 µM, read-out: Average AC50 (Log[M]), NCGC00473217 clone F12 (Cytb A122D) (converted)
[7] = DD2, Dd2 parental, Hill fit, averaged from three independent replicates, top concentration 29 µM, read-out: Average AC50 (Log[M]), Dd2 (converted)
[8] = DD2, […], averaged from three independent replicates, top concentration 29 µM, read-out: Average AC50 (Log[M]), NCGC00374598 clone C11 (Cytb G131S) (converted)
[9] = DD2, […], averaged from three independent replicates, top concentration 29 µM, read-out: Average AC50 (Log[M]), NCGC00473217 clone F06 (Cytb V259L) (converted)
[10] = DD2, […], averaged from three independent replicates, top concentration 29 µM, read-out: Average AC50 (Log[M]), NCGC00473217 clone G08 (Cytb F123L) (converted)

Compound	AC50 [1, 6]	AC50 [2, 7]	AC50 [3, 8]	AC50 [4, 9]	AC50 [5, 10]	further results
CCCN1C(CC(C)C)=N[S+](=O)([O-])c2cc(NC(=O)c3ccc(F)s3)ccc21 [NCGC00523537-01]	7.96e-07 M	1.12e-07 M	3.17e-07 M	8.93e-07 M	3.85e-06 M	–
CCCN1C(CC(C)C)=N[S+](=O)([O-])c2cc(NC(=O)c3cnn4cccnc34)ccc21 [NCGC00521136-01]	6.84e-06 M	1.22e-05 M	7.96e-06 M	8.28e-06 M	1.17e-05 M	–
CCCN1C(CC(C)C)=N[S+](=O)([O-])c2cc(NC(=O)c3cncnc3)ccc21 [NCGC00521134-01]	3.77e-06 M	8.93e-06 M	4.48e-06 M	1.59e-06 M	4.48e-06 M	–
CCCN1C(CC(C)C)=N[S+](=O)([O-])c2cc(NC(=O)c3cc4ncccn4n3)ccc21 [NCGC00521137-01]	9.29e-06 M	1e-05 M	5.97e-06 M	7.38e-06 M	1.04e-05 M	–
CCCN1C(CC(C)C)=N[S+](=O)([O-])c2cc(NC(=O)c3ncco3)ccc21 [NCGC00521053-01]	7.96e-06 M	1.08e-05 M	1.12e-05 M	9.66e-06 M	1.42e-05 M	–
CCCN1C(CC(C)C)=N[S+](=O)([O-])c2cc(NC(=O)c3ccon3)ccc21 [NCGC00521044-01]	9.46e-06 M	1.26e-05 M	6.7e-06 M	7.96e-06 M	4.15e-07 M	–
CCCN1C(CC(C)C)=N[S+](=O)([O-])c2cc(NC(=O)c3ncccn3)ccc21 [NCGC00521149-01]	1.04e-05 M	1.12e-05 M	1.59e-05 M	1.19e-05 M	1.42e-05 M	–
CCCN1C(CC(C)C)=N[S+](=O)([O-])c2cc(NC(=O)c3ccc(Cl)c(Cl)c3)ccc21 [NCGC00531756-01]	8.93e-06 M	2e-05 M	5.97e-06 M	7.38e-06 M	1.42e-05 M	–
CCCN1C(CC(C)C)=N[S+](=O)([O-])c2cc(NC(=O)c3ccc4ccccc4n3)ccc21 [NCGC00521161-01]	3.99e-06 M	5.97e-06 M	7.96e-07 M	2.24e-06 M	2.82e-06 M	–
CCCN1C(CC(C)C)=N[S+](=O)([O-])c2cc(NC(=O)c3ccccn3)ccc21 [NCGC00521133-01]	1.89e-06 M	9.29e-06 M	1.04e-06 M	7.67e-06 M	1.04e-05 M	–
CCCN1C(CC(C)C)=N[S+](=O)([O-])c2cc(NC(=O)c3ccc(C)s3)ccc21 [NCGC00510977-01]	7.96e-06 M	8.61e-06 M	8.93e-06 M	1.04e-05 M	8.93e-06 M	–
CCCN1C(CC(C)C)=N[S+](=O)([O-])c2cc(NC(=O)c3nccs3)ccc21 [NCGC00521040-01]	7.1e-06 M	9.29e-06 M	8.28e-07 M	1.31e-05 M	6.7e-06 M	–
CCCN1C(CC(C)C)=N[S+](=O)([O-])c2cc(NC(=O)C34CC5CC(CC(C5)C3)C4)ccc21 [NCGC00521891-01]	1.89e-06 M	3.56e-06 M	2.82e-07 M	1.12e-06 M	1e-06 M	–
CCCN1C(CC(C)C)=N[S+](=O)([O-])c2cc(NC(=O)C3CCC3)ccc21 [NCGC00521095-01]	1e-05 M	3.17e-06 M	3.36e-07 M	2.99e-06 M	6.7e-06 M	–
CCCN1C(CC(C)C)=N[S+](=O)([O-])c2cc(NC(=O)c3sccc3Cl)ccc21 [NCGC00531529-01]	6.1e-07 M	2.24e-06 M	5.86e-07 M	3.7e-06 M	2.24e-06 M	–
CCCN1C(CC(C)C)=N[S+](=O)([O-])c2cc(NC(=O)c3ccccc3F)ccc21 [NCGC00523540-01]	2.82e-06 M	4.66e-06 M	4.48e-06 M	2.16e-06 M	2.72e-06 M	–
CCCN1C(CC(C)C)=N[S+](=O)([O-])c2cc(NC(=O)c3cc(C)on3)ccc21 [NCGC00521054-01]	2e-06 M	8.93e-06 M	1.26e-05 M	2e-06 M	4.48e-06 M	–
CCCN1C(CC(C)C)=N[S+](=O)([O-])c2cc(NC(=O)c3cccc(OC(F)(F)F)c3)ccc21 [NCGC00531537-01]	1e-05 M	1.12e-05 M	1.12e-05 M	3.99e-06 M	7.96e-06 M	–
CCCN1C(CC(C)C)=N[S+](=O)([O-])c2cc(NC(=O)c3sccc3C)ccc21 [NCGC00521035-01]	2.82e-06 M	1.59e-06 M	1.65e-06 M	6.84e-06 M	9.46e-06 M	–
CCCN1C(CC(C)C)=N[S+](=O)([O-])c2cc(NC(=O)C3CCCC3)ccc21 [NCGC00521158-01]	5.22e-06 M	2.72e-06 M	4.15e-06 M	2.16e-06 M	1.17e-05 M	–
CCCN1C(CC(C)C)=N[S+](=O)([O-])c2cc(NC(=O)c3cc4cccnc4s3)ccc21 [NCGC00521132-01]	2.99e-06 M	6.7e-06 M	2.82e-06 M	2.99e-06 M	8.93e-06 M	–
CCCN1C(CC(C)C)=N[S+](=O)([O-])c2cc(NC(=O)COc3ccccc3)ccc21 [NCGC00521094-01]	1.36e-05 M	7.67e-06 M	8.28e-06 M	6.84e-06 M	6.1e-06 M	–
CCCN1C(CC(C)C)=N[S+](=O)([O-])c2cc(NC(=O)c3cn(-c4ccccc4)cn3)ccc21 [NCGC00521102-01]	3.56e-08 M	7.67e-06 M	2.62e-07 M	2.99e-06 M	3.56e-06 M	–
CCCN1C(CC(C)C)=N[S+](=O)([O-])c2cc(NC(=O)c3coc4ccccc34)ccc21 [NCGC00521147-01]	5.64e-06 M	7.38e-06 M	8.43e-06 M	2.24e-06 M	8.93e-06 M	–
O=C1C(O)=C([C@H]2CC[C@H](c3ccc(Cl)cc3)CC2)C(=O)c2ccccc21 [Atovaquone, atovaquone, reference compound]	–	–	–	–	–	susceptibility of A122D mutant compared to parental line [1]: significantly more susceptible; AC50 ([1]; DD2, NCGC00473217 selected clone, read-out: AC50 Log[M] ± SD, Cytb A122D (converted)): 5.5e-10 M; AC50 ([1]; DD2, Suppl Table 6, read-out: AC50 (mM), Dd2 Cytb A122D): 5.5e-10 M; AC50 ([2]; DD2, 72 h, SYBR Green 72 h, WT Dd2-B2, read-out: AC50 Log[M] ± SD, Dd2-B2 (parental line) (converted)): 3.31e-09 M; AC50 ([2]; DD2, Suppl Table 6, read-out: AC50 (mM), WT (Dd2-B2)): 3.3e-09 M; potency in G131S mutant lines compared to parental line [3]: potency was not compromised; AC50 ([3]; DD2, NCGC00374598 selected clone, read-out: AC50 Log[M] ± SD, Cytb G131S (converted)): 2.19e-09 M; AC50 ([3]; DD2, Suppl Table 6, read-out: AC50 (mM), Dd2 Cytb G131S): 2.2e-09 M; susceptibility of V259L variant compared to parental line [4]: significantly less susceptible; AC50 ([4]; DD2, NCGC00473217 selected clone, read-out: AC50 Log[M] ± SD, Cytb V259L (converted)): 2.34e-08 M; AC50 ([4]; DD2, Suppl Table 6, read-out: AC50 (mM), Dd2 Cytb V259L): 2.34e-08 M; susceptibility of F123L mutant compared to parental line [5]: significantly more susceptible; AC50 ([5]; DD2, NCGC00473217 selected clone, read-out: AC50 Log[M] ± SD, Cytb F123L (converted)): 8.71e-10 M; AC50 ([5]; DD2, Suppl Table 6, read-out: AC50 (mM), Dd2 Cytb F123L): 9e-10 M
